Laboratory results published in patent US6750034B1, “DNA encoding human serine protease D-G” (Ortho-McNeil Pharmaceutical, Inc., priority 2000, dated 2004).
[ ]: non-standard residue; d: D form. The star is where a group is joined. pNA = O=[N+]([O-])c1ccc(N*)cc1; Cbz = O=C(OCc1ccccc1)*

What follows are substances tested against T1, activated protease D-G-6×HIS (Homo sapiens, UniProt Q9NRS4) (assay: Chromogenic (amidolytic) assay, release of pNA from synthetic substrates). Settings: recombinant activated protease D-G-6×HIS; substrate 500 uM; 10 mM TRIS-HCl pH 7.8, 25 mM NaCl, 25 mM imidazole; 37° C., 120 min, 405 nm; N.A. = No Activity.
T1 construct: enterokinase cleavage site from human trypsinogen I (EK) (N, cleaved yes); made in house; host or cells: Sf9 insect cells, baculovirus (pFastBac 1)
Format: biochemical
Description: Amidolytic activities of the activated serine proteases are monitored by release of para-nitroaniline (pNA) from synthetic substrates that are commercially available (Bachem California Inc., Torrance, […].; American Diagnostica Inc., Greenwich, Conn.; Kabi Pharmacia Hepar Inc., Franklin, Ohio). Assay mixtures contain chromogenic substrates in 500 uM and 10 mM TRIS-HCl (pH 7.8), 25 mM NaCl, and 25 mM imidazole. Release of pNA is measured over 120 min at 37° C. on a micro-plate reader (Molecular Devices, Menlo Park, Calif.) with a 405 nm absorbance filter. The initial reaction rates (Vmax, mOD/min) are determined from plots of absorbance versus time using Softmax (Molecular Devices, Menlo Park, Calif.). The specific activities (nmole pNA produced/min/ug protein) of the activated protease D-G-6×HIS for the various substrates are presented in Table 1.
Table 1—The specific activity (nmole pNA produced/min/ug protein) of recombinant activated protease D-G-6×HIS, determined for the various substrates analyzed, is shown.

T1 sequence (Q9NRS4 205-434 limits assumed): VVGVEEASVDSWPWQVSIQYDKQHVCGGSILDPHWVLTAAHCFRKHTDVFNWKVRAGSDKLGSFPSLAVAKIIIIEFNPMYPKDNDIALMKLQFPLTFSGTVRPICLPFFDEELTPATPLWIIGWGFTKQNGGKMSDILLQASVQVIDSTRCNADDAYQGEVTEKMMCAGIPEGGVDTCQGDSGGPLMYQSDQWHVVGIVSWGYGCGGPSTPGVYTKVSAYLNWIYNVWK

**Q.** For Cbz-Phe-Arg-pNA, which “Specific Activity” value is on record?
**A.** 0.116 ± 0.006 nmole pNA produced/min/ug protein

**Q.** How did the “Specific Activity” value turn out when H-D-LYS(CBO)-Pro-Arg-pNA was run?
**A.** 0.076 ± 0.008 nmole pNA produced/min/ug protein

**Q.** H-D-Pro-HHT-Arg-pNA was tested. Which “Specific Activity” value did it give?
**A.** 0.046 ± 0.001 nmole pNA produced/min/ug protein

**Q.** For H-[dV]-Leu-Arg-pNA, which “Specific Activity” value is on record?
**A.** 0.025 ± 0.003 nmole pNA produced/min/ug protein

**Q.** Which “Specific Activity” value does the source give for H-[dV]-Leu-Lys-pNA here?
**A.** 0.034 ± 0.003 nmole pNA produced/min/ug protein
